Experimental data: patent publication US8058243B2, “Method for treating a brain cancer with ifenprodil” (HSC Research and Development Limited Partnership, priority 2006, dated 2011)
Structures can show the parent of a compound that is named as a salt. Where two headings read alike, the source gives them in different places.

System: murine neural precursor cells (neurosphere cultures)
Test: HTS of LOPAC library against secondary neurosphere cultures, MTT proliferation assay at 3 μM, day 7 (z score, P value)
Format: cell-based, mouse
[1] = LOPAC library screen at 3 μM, secondary neurosphere cultures, MTT
[2] = LOPAC primary screen, neurosphere MTT proliferation, 3 μM, day 7
[3] = yes/no: significantly inhibited neurosphere proliferation in primary screen
[4] = LOPAC library screen, 3 μM, MTT, neurosphere cultures
[5] = primary LOPAC screen, 3 μM, MTT, neurosphere proliferation
[6] = yes/no: significantly inhibited neurosphere proliferation in the primary screen
[7] = yes/no: significantly inhibited neurosphere proliferation (P<0.01) in primary screen
[8] = LOPAC screen, neurosphere MTT proliferation, 3 μM, day 7
[9] = yes = significantly inhibited neurosphere proliferation (P<0.01) in the primary screen
[10] = yes/no: significantly inhibited neurosphere proliferation (P<0.01) in the primary screen
[11] = LOPAC library screen, 3 μM, MTT, secondary neurosphere cultures, day 7

## CCSC(N)=Nc1ccc(C(F)(F)F)cc1.Cl [TFPI hydrochloride]
[1]
  Z Score: −1.156
[2]
  Z score: −1.156
[3]
  Activity: no

## S(−)-Atenolol
[4]
  Z Score: 0.617
[5]
  Z score: 0.617
[6]
  Activity: no

## CCCCCC(O)CCCC(=O)O.[Na] (stereo not drawn) [5-hydroxydecanoic acid sodium]
168 h, 3 µM
  Z Score: 0.2332
  Z score: 0.233
[7]
  Activity: no

## NC(=O)C(=O)[O-].[Na+] [Sodium Oxamate]
168 h, 3 µM
  Z Score: 0.7449
  Z score: 0.745
[3]
  Activity: no

## O=S(=O)(O)C1CCNCC1 [Piperidine-4-sulphonic acid]
168 h, 3 µM
  Z Score: −0.4238
  Z score: −0.424
[3]
  Activity: no

## CCCn1c(C)c(C(=O)c2cccc3ccccc23)c2ccccc21 [JWH-015]
  Z Score: 0.6223
[2]
  Z score: 0.622
[7]
  Activity: no

## c1ccc(C2CC2)c(OCC2=NCCN2)c1 [Cirazoline hydrochloride]
[4]
  Z Score: 0.4239
[8]
  Z score: 0.424
[7]
  Activity: no

## C[Se]C[C@H](N)C(=O)O.Cl [Se-(methyl)selenocysteine hydrochloride]
  Z Score: 0.4116
[2]
  Z score: 0.412
[9]
  Activity: no

## CN1CCc2cc(O)cc3c2[C@H]1Cc1ccc(O)c(O)c1-3 [R(−)-2,10,11-Trihydroxyaporphine]
[2]
  Z score: −3.309
[10]
  Activity: yes

## CCN(CC)CCNC(=O)c1cc(Cl)c(N)cc1OC [Metoclopramide hydrochloride]
168 h, 3 µM
  Z Score: −1.992
  Z score: −1.992
[10]
  Activity: no

## NC(=O)OCC(COC(N)=O)c1ccccc1 [Felbamate]
[1]
  Z Score: −0.4586
[2]
  Z score: −0.459
[7]
  Activity: no

## CCN(CC)CCCCCCCCOC(=O)c1cc(OC)c(OC)c(OC)c1.Cl [TMB-8 hydrochloride]
  Z Score: 1.707
[2]
  Z score: 1.707
[9]
  Activity: no

## Cc1[nH]c(=O)c(C#N)cc1-c1ccncc1 [Milrinone]
[4]
  Z Score: 0.05506
[2]
  Z score: 0.055
[9]
  Activity: no

## CC1CNCCN1S(=O)(=O)c1cccc2cnccc12.Cl.Cl (stereo not drawn) [H-7 dihydrochloride]
  Z Score: 0.6813
[2]
  Z score: 0.681

## CC(=O)CCCCn1c(=O)c2c(ncn2C)n(C)c1=O [Pentoxifylline]
[11]
  Z Score: −1.637
[2]
  Z score: −1.637
[3]
  Activity: no

## CC(C[N+](C)(C)C)OC(N)=O (stereo not drawn) [Bethanechol chloride]
[1]
  Z Score: −0.6493
[8]
  Z score: −0.649
[7]
  Activity: no

## C#CCN(C)Cc1ccccc1 [Pargyline hydrochloride]
[1]
  Z Score: −0.2794
[2]
  Z score: −0.279
[3]
  Activity: no

## NC(=O)c1ccccc1 [Beuzamide]
  Z Score: 0.5498

## CCCCC#Cc1nc(N)c2ncn([C@@H]3O[C@H](C(=O)NCC)[C@@H](O)[C@H]3O)c2n1 [HE-NECA]
  Z Score: −2.504
[2]
  Z score: −2.504
[10]
  Activity: yes

## CCOC(=O)C(C)(C)Oc1ccc(Cl)cc1 [Clofibrate]
[11]
  Z Score: −1.738
[8]
  Z score: −1.738

## Cl.Cl.Cl.Cl.NCCCNCCCCNCCCN [Spermine tetrahydrochloride]
  Activity: no
  Z Score: 0.3942
  Z score: 0.394

## Nc1nc2c(nc(Br)n2[C@@H]2O[C@@H]3COP(=O)([O-])O[C@H]3[C@H]2O)c(=O)[nH]1.[Na+] [8-Bromo-cGMP sodium]
  Z Score: −1.005
[5]
  Z score: −1.005
[6]
  Activity: no

## Dihydroergocristine methanesulfonate
  Z Score: −0.773
[8]
  Z score: −0.773
[7]
  Activity: no

## O=C1c2c(O)cc(O)cc2O[C@H](c2ccc(O)c(O)c2)[C@H]1O (racemic) [(±)-Taxifolin]
168 h, 3 µM
  Z score: 1.321
[6]
  Activity: no

## Cc1cccc(C#Cc2ccccc2)n1.Cl [6-Methyl-2-(phenylethynyl)pyridine hydrochloride]
168 h, 3 µM
  Z Score: 0.09366
  Z score: 0.094
[9]
  Activity: no

## CN(C)CCC(c1ccc(Cl)cc1)c1ccccn1.O=C(O)/C=C\C(=O)O (stereo not drawn) [(B1)-Chlorpheniramine maleate]
  Z Score: −2.116

## CN1[C@@H]2CC[C@H]1C[C@@H](OC(c1ccccc1)c1ccccc1N)C2 (stereo partly drawn) [Aminobenztropine]
[11]
  Z Score: −1.455
[2]
  Z score: −1.455
[10]
  Activity: no

## NC(=O)CN1CCCC1=O [Piracetam]
[1]
  Z Score: −0.3758
[2]
  Z score: −0.376
[9]
  Activity: no

## CCNC(=O)[C@H]1O[C@@H](n2cnc3c(N)nc(NCCc4ccc(CCC(=O)O)cc4)nc32)[C@H](O)[C@@H]1O [CGS-21680 hydrochloride]
168 h, 3 µM
  Z Score: −1.225
  Z score: −1.225
[10]
  Activity: no

## CC(CCc1ccccc1)NCC(O)c1ccc(O)c(C(N)=O)c1 (stereo not drawn) [Labetalol hydrochloride]
  Activity: no
[1]
  Z Score: −1.097
[2]
  Z score: −1.097

## Br.C[N+](C)(C)CCCCCNCC12CC3CC(CC(C3)C1)C2.[Br-] [IEM-1460]
  Z Score: 0.6848
[2]
  Z score: 0.685
[7]
  Activity: no

## C=CCN1CC[C@]23c4c5ccc(O)c4O[C@H]2C(=O)CC[C@@]3(O)[C@H]1C5 [Naloxone hydrochloride]
[11]
  Z Score: −10.14
[2]
  Z score: −10.137
[10]
  Activity: yes

## Nc1ncn([C@@H]2O[C@H](CO)[C@@H](O)[C@H]2O)c(=O)n1 [5-azacytidine]
[11]
  Z Score: −1.398
[5]
  Z score: −1.398
[6]
  Activity: no

## CCCN(CCC)C(=O)Cc1c(-c2ccc(Cl)cc2)nc2c(Cl)cc(Cl)cn12 [CB34]
  Z Score: −1.081
[8]
  Z score: −1.081
[7]
  Activity: no

## CC1COc2c(N3CCN(C)CC3)c(F)cc3c(=O)c(C(=O)O)cn1c23 (stereo not drawn) [Ofloxacin]
[1]
  Z Score: −0.4889
[2]
  Z score: −0.489

## CN(C)CCC=C1c2ccccc2COc2ccccc21 [Doxepin hydrochloride]
168 h, 3 µM
  Z Score: −1.012
  Z score: −1.012
[10]
  Activity: no

## Ic1ccccc1CNC1C2CCN(CC2)C1C(c1ccccc1)c1ccccc1.O=C(O)C(=O)O [L-703,606 oxalate]
[1]
  Z Score: −0.5069
[2]
  Z score: −0.507
[9]
  Activity: no

## COc1cc(/C=C(\C#N)C(=O)c2ccc(O)c(O)c2)cc(I)c1O [I-OMe-Tyrphostin AG 538]
[1]
  Z Score: −0.7369
[5]
  Z score: −0.737
[6]
  Activity: no

## CC(=O)S[C@@H]1CC2=CC(=O)CC[C@]2(C)[C@H]2CC[C@@]3(C)[C@@H](CC[C@@]34CCC(=O)O4)[C@H]12 [Spironolactone]
  Activity: no
[1]
  Z Score: −0.5258
[2]
  Z score: −0.526

## O=C1N(c2ccccc2)c2ccccc2C1(Cc1ccncc1)Cc1ccncc1 [Linopirdine]
[1]
  Z Score: −0.5525
[2]
  Z score: −0.553
[9]
  Activity: no

## CC1Cc2cc3c(cc2C(c2ccc(N)cc2)=NN1)OCO3 (stereo not drawn) [GYKI 52895]
  Activity: no
  Z Score: −1.258
[2]
  Z score: −1.258

## COc1ccc([C@@H]2Sc3ccccc3N(CCN(C)C)C(=O)[C@@H]2OC(C)=O)cc1 [Diltiazem hydrochloride]
  Activity: no
[4]
  Z Score: 0.5395
[8]
  Z score: 0.540

## N[C@@H](Cn1cc(I)c(=O)[nH]c1=O)C(=O)O [S-5-Iodowillardiine]
  Z Score: −0.3551
[5]
  Z score: −0.355
[6]
  Activity: no

## CC(C)(C)c1ccc(C(O)CCCN2CCC(C(O)(c3ccccc3)c3ccccc3)CC2)cc1 (stereo not drawn) [Terfenadine]
  Activity: no
[4]
  Z Score: 0.7553
[5]
  Z score: 0.755

## COc1cc(C(O)CN)ccc1O.Cl (racemic) [(±)-Normetanephrine hydrochlodride]
[2]
  Z score: −1.796
[9]
  Activity: no

## COc1ccccc1N1CCN(CCN(C(=O)c2ccc(F)cc2)c2ccccn2)CC1.Cl.Cl [p-MPPF dihydrochloride]
  Z Score: −2.16

## COc1cc2nc(N3CCN(C(=O)OCc4ccccc4)[C@H](C(=O)NC(C)(C)C)C3)nc(N)c2cc1OC [L-765,314]
  Z Score: −0.8308
[2]
  Z score: −0.831
[10]
  Activity: no

## N=C(N)NC(CCC(=O)O)C(=O)O (stereo not drawn) [alpha-Guanidinoglutaric acid]
168 h, 3 µM
  Z Score: −9.041
  Z score: −9.041
[10]
  Activity: yes

## O=S(=O)(c1cccc2cnccc12)N1CCNCC1 [HA-100]
  Z Score: −0.6892
[2]
  Z score: −0.689
[10]
  Activity: no

## Cn1c(=O)c2[nH]c(-c3ccccc3)nc2n(C)c1=O [1,3-Dimethyl-8-phenylxanthine]
168 h, 3 µM
  Z Score: 0.7518
  Z score: 0.752
[3]
  Activity: no

## O=C(O)Cc1ccc(O)c(O)c1 [3,4-Dihydroxyphenylacetic acid]
  Z Score: −0.5832
[8]
  Z score: −0.583
[7]
  Activity: no

## m-Iodobenzylguanidine hemisulfate
  Activity: yes
  Z Score: −2.564
  Z score: −2.564

## O=C(O)CCC/C=C\C[C@@H]1[C@@H](/C=C/[C@H](O)C2Cc3ccccc3C2)[C@@H](F)C[C@@H]1O [AL-8810]
  Z Score: −1.806
[5]
  Z score: −1.806
[6]
  Activity: no

## CC1(C)NC(=O)N(c2ccc([N+](=O)[O-])c(C(F)(F)F)c2)C1=O [Nilutamide]
[4]
  Z Score: 0.1188
[2]
  Z score: 0.119
[9]
  Activity: no

## N#CC(C#N)=Cc1ccc([N+](=O)[O-])c(O)c1 [Tyrphostin AG 126]
[1]
  Z Score: −0.4102
[5]
  Z score: −0.410
[6]
  Activity: no

## NC(=O)N1c2ccccc2C=Cc2ccccc21 [Carbamazepine]
[4]
  Z Score: 1.114
[8]
  Z score: 1.114
[7]
  Activity: no
